Source: ChEMBL document CHEMBL1157662, “Antimalarial and antileishmanial activities of histone deacetylase inhibitors with triazole-linked cap group” (Bioorg Med Chem, 2010)
In brackets after ≈: the same amount, converted by molar mass. Activity calls are given as the source filed them. The rule behind the calls is not given here.

Tests used:
Histone deacetylase = experiment: Inhibition of HDAC in human HeLa cell nuclear extracts after 15 mins by fluorescence assay; type: cell-based
[1] = Selectivity index, ratio of IC50 for african green monkey (Cercopithecus aethiops) Vero cells to IC50 for chloroquine-resistant Plasmodium falciparum W2
Leishmania donovani [2] = tested on: Leishmania donovani
Leishmania donovani [3] = experiment: Antileishmanial activity against Leishmania donovani promastigotes after 72 hrs by alamar blue assay; type: functional, organism-based
Plasmodium falciparum [4] = experiment: microbe, parasite or virus in culture; details: D6, Vero, 72 h
Description: (§1) Antimalarial activity against chloroquine-sensitive Plasmodium falciparum D6 infected in African green monkey (Cercopithecus aethiops) Vero cells assessed as parasite LDH activity after 72 hrs by Malstat reagent method

Plasmodium falciparum [5] = experiment: microbe, parasite or virus in culture; type: functional, organism-based, W2, Vero
Description: Antimalarial activity against chloroquine-resistant Plasmodium falciparum W2 infected in African green monkey (Cercopithecus aethiops) Vero cells assessed as parasite LDH activity after 72 hrs by Malstat reagent method

Vero = experiment: Cytotoxicity against african green monkey Vero cells after 1 to 2 days by neutral red assay; type: ADME, cell-based, Chlorocebus sabaeus
[6] = Selectivity index, ratio of IC50 for african green monkey (Cercopithecus aethiops) Vero cells to IC50 for chloroquine-sensitive Plasmodium falciparum D6
Leishmania donovani [7] = experiment: Ratio of suberoylanilide hydroxamic acid IC50 to compound IC50 for Leishmania donovani promastigotes
Leishmania donovani [8] = experiment: Ratio of suberoylanilide hydroxamic acid IC50 to compound IC50 for Leishmania donovani promastigotes; type: functional
Plasmodium falciparum [9] = experiment: Ratio of suberoylanilide hydroxamic acid IC50 to compound IC50 for chloroquine-resistant Plasmodium falciparum W2 infected in […]; type: functional
Plasmodium falciparum [10] = experiment: Ratio of suberoylanilide hydroxamic acid IC50 to compound IC50 for chloroquine-sensitive Plasmodium falciparum D6 infected in […]; type: functional
Plasmodium falciparum [11] = details: vero
Description: as §1

[12] = Plasmodium falciparum, W2, Vero, 72 h, read-out: IC50
[13] = Chlorocebus sabaeus, Vero, read-out: IC50
[14] = Leishmania donovani, 72 h, read-out: IC50

O=C(CCCCCCCn1cc(-c2ccc(-c3ccncc3)cc2)nn1)NO
IC50 (Histone deacetylase): 212.9 nM
selectivity ratio [1]: 30.2
IC90 (Leishmania donovani [2]): inactive
IC50 (Leishmania donovani [3]): Not Active
IC50 (Plasmodium falciparum [4]): 0.0885 µg/mL (≈ 0.233 µM)
IC50 (Plasmodium falciparum [5]; [12]): 0.128 µg/mL (≈ 0.336 µM)
IC50 (Vero; [13]): 3.85 µg/mL (≈ 10.1 µM)
selectivity ratio [6]: 43.5

CN(C)c1ccc(-c2cn(CCCCCCC(=O)NO)nn2)cc1
selectivity ratio [1]: 23.9
IC90 (Leishmania donovani [3]; Leishmania donovani, 72 h): 36 µg/mL (≈ 109 µM)
IC50 (Leishmania donovani [3]; [14]): 5.35 µg/mL (≈ 16.1 µM)
IC50 ratio (Leishmania donovani [7]): 2
IC50 (Plasmodium falciparum [4]): 0.0245 µg/mL (≈ 0.0739 µM)
Ratio (Leishmania donovani [8]): 2
IC50 (Plasmodium falciparum [5]; [12]): 0.032 µg/mL (≈ 0.0966 µM)
IC50 (Vero; [13]): 0.765 µg/mL (≈ 2.31 µM)
selectivity ratio [6]: 31.2

O=C(CCCCCn1cc(-c2ccc3cccnc3c2)nn1)NO
selectivity ratio [1]: > 144
IC90 (Leishmania donovani [3]; Leishmania donovani, 72 h): > 40 µg/mL
IC50 (Leishmania donovani [3]; [14]): 18.5 µg/mL (≈ 56.9 µM)
Ratio IC50 (Plasmodium falciparum [9]): 5
IC50 (Plasmodium falciparum [4]): 0.0525 µg/mL (≈ 0.161 µM)
Ratio IC50 (Plasmodium falciparum [10]): 5
IC50 (Plasmodium falciparum [5]; [12]): 0.033 µg/mL (≈ 0.101 µM)
IC50 (Vero; vero): Non-toxic
selectivity ratio [6]: > 90.7

O=C(CCCCCCn1cc(-c2ccccc2)nn1)NO
selectivity ratio [1]: 17.6
IC90 (Leishmania donovani [3]; Leishmania donovani, 72 h): 40 µg/mL (≈ 139 µM)
IC50 (Leishmania donovani [3]; [14]): 4.55 µg/mL (≈ 15.8 µM)
IC50 ratio (Leishmania donovani [7]): 2
IC50 (Plasmodium falciparum [4]): 0.038 µg/mL (≈ 0.132 µM)
Ratio (Leishmania donovani [8]): 2
IC50 (Plasmodium falciparum [5]; [12]): 0.0245 µg/mL (≈ 0.085 µM)
IC50 (Vero; [13]): 0.43 µg/mL (≈ 1.49 µM)
selectivity ratio [6]: 11.3

O=C(CCCn1cc(-c2ccccc2)nn1)NO
selectivity ratio [1]: > 1.4
IC90 (Leishmania donovani [2]): inactive
IC50 (Leishmania donovani [3]): Not Active
IC50 (Plasmodium falciparum [4]): 2.85 µg/mL (≈ 11.6 µM)
IC50 (Plasmodium falciparum [5]; [12]): 3.5 µg/mL (≈ 14.2 µM)
IC50 (Vero; vero): Non-toxic
selectivity ratio [6]: > 1.7

O=C(CCCCCCCn1cc(-c2cccc(-c3ccccc3)c2)nn1)NO
IC50 (Histone deacetylase): 108.9 nM
selectivity ratio [1]: > 7.3
IC90 (Leishmania donovani [3]; Leishmania donovani, 72 h): 40 µg/mL (≈ 106 µM)
IC50 (Leishmania donovani [3]; [14]): 20.2 µg/mL (≈ 53.5 µM)
IC50 (Plasmodium falciparum [4]): 0.84 µg/mL (≈ 2.22 µM)
IC50 (Plasmodium falciparum [5]; [12]): 0.65 µg/mL (≈ 1.72 µM)
IC50 (Vero; vero): Non-toxic
selectivity ratio [6]: > 5.6

O=C(CCCCCCCCn1cc(-c2cccc(-c3ccccc3)c2)nn1)NO
IC50 (Histone deacetylase): 147.7 nM
selectivity ratio [1]: > 1.5
IC90 (Leishmania donovani [3]; Leishmania donovani, 72 h): 40 µg/mL (≈ 102 µM)
IC50 (Leishmania donovani [3]; [14]): 20 µg/mL (≈ 51 µM)
IC50 (Plasmodium falciparum [4]): 3.35 µg/mL (≈ 8.53 µM)
IC50 (Plasmodium falciparum [5]; [12]): 3.2 µg/mL (≈ 8.15 µM)
IC50 (Vero; vero): Non-toxic
selectivity ratio [6]: > 1.4

COc1ccc2cc(-c3cn(CCCCCCCC(=O)NO)nn3)ccc2c1
IC50 (Histone deacetylase): 226.1 nM
selectivity ratio [1]: 3.9
IC90 (Leishmania donovani [2]): inactive
IC50 (Leishmania donovani [3]): Not Active
IC50 (Plasmodium falciparum [4]): 0.112 µg/mL (≈ 0.293 µM)
IC50 (Plasmodium falciparum [5]; [12]): 0.165 µg/mL (≈ 0.431 µM)
IC50 (Vero; [13]): 0.65 µg/mL (≈ 1.7 µM)
selectivity ratio [6]: 5.8

O=C(CCCCCn1cc(-c2cccs2)nn1)NO
selectivity ratio [1]: > 130
IC90 (Leishmania donovani [3]; Leishmania donovani, 72 h): > 40 µg/mL
IC50 (Leishmania donovani [3]; [14]): 11.5 µg/mL (≈ 41 µM)
IC50 ratio (Leishmania donovani [7]): 2
IC50 (Plasmodium falciparum [4]): 0.046 µg/mL (≈ 0.164 µM)
Ratio (Leishmania donovani [8]): 2
IC50 (Plasmodium falciparum [5]; [12]): 0.0365 µg/mL (≈ 0.13 µM)
IC50 (Vero; vero): Non-toxic
selectivity ratio [6]: > 103

O=C(CCCCn1cc(-c2ccccc2)nn1)NO
selectivity ratio [1]: > 39.6
IC90 (Leishmania donovani [2]): inactive
IC50 (Leishmania donovani [3]): Not Active
IC50 (Plasmodium falciparum [4]): 0.125 µg/mL (≈ 0.48 µM)
IC50 (Plasmodium falciparum [5]; [12]): 0.12 µg/mL (≈ 0.461 µM)
IC50 (Vero; vero): Non-toxic
selectivity ratio [6]: > 38.1

O=C(CCCCCn1cc(-c2cccc(-c3ccccc3)c2)nn1)NO
selectivity ratio [1]: > 183
IC90 (Leishmania donovani [3]; Leishmania donovani, 72 h): 32.5 µg/mL (≈ 92.7 µM)
IC50 (Leishmania donovani [3]; [14]): 11.2 µg/mL (≈ 32.1 µM)
IC50 ratio (Leishmania donovani [7]): 2
IC50 (Plasmodium falciparum [4]): 0.0375 µg/mL (≈ 0.107 µM)
Ratio (Leishmania donovani [8]): 2
IC50 (Plasmodium falciparum [5]; [12]): 0.026 µg/mL (≈ 0.0742 µM)
IC50 (Vero; vero): Non-toxic
selectivity ratio [6]: > 127

Cc1ccccc1-c1cn(CCCCCCC(=O)NO)nn1
IC50 (Histone deacetylase): 2.8 nM
selectivity ratio [1]: 5.1
IC90 (Leishmania donovani [3]; Leishmania donovani, 72 h): 40 µg/mL (≈ 132 µM)
IC50 (Leishmania donovani [3]; [14]): 26 µg/mL (≈ 86 µM)
IC50 (Plasmodium falciparum [4]): 0.12 µg/mL (≈ 0.397 µM)
IC50 (Plasmodium falciparum [5]; [12]): 0.14 µg/mL (≈ 0.463 µM)
IC50 (Vero; [13]): 0.71 µg/mL (≈ 2.35 µM)
selectivity ratio [6]: 5.9

O=C(CCCCCCn1cc(-c2cccnc2)nn1)NO
IC50 (Histone deacetylase): 365.8 nM
selectivity ratio [1]: 46.7
IC90 (Leishmania donovani [3]; Leishmania donovani, 72 h): 40 µg/mL (≈ 138 µM)
IC50 (Leishmania donovani [3]; [14]): 15.5 µg/mL (≈ 53.6 µM)
IC50 (Plasmodium falciparum [4]): 0.0755 µg/mL (≈ 0.261 µM)
IC50 (Plasmodium falciparum [5]; [12]): 0.081 µg/mL (≈ 0.28 µM)
IC50 (Vero; [13]): 3.78 µg/mL (≈ 13.1 µM)
selectivity ratio [6]: 50.1

COc1ccc2cc(-c3cn(CCCCCC(=O)NO)nn3)ccc2c1
selectivity ratio [1]: > 91.9
IC90 (Leishmania donovani [3]; Leishmania donovani, 72 h): > 40 µg/mL
IC50 (Leishmania donovani [3]; [14]): 18 µg/mL (≈ 50.8 µM)
Ratio IC50 (Plasmodium falciparum [9]): 5
IC50 (Plasmodium falciparum [4]): 0.035 µg/mL (≈ 0.0988 µM)
Ratio IC50 (Plasmodium falciparum [10]): 5
IC50 (Plasmodium falciparum [5]; [12]): 0.031 µg/mL (≈ 0.0875 µM)
IC50 (Vero; [13]): 2.85 µg/mL (≈ 8.04 µM)
selectivity ratio [6]: > 81.4

O=C(CCCCCCn1cc(-c2ccc(-c3ccncc3)cc2)nn1)NO
selectivity ratio [1]: > 3.8
IC90 (Leishmania donovani [2]): inactive
IC50 (Leishmania donovani [3]): Not Active
IC50 (Plasmodium falciparum [4]): 1.15 µg/mL (≈ 3.15 µM)
IC50 (Plasmodium falciparum [5]; [12]): 1.25 µg/mL (≈ 3.42 µM)
IC50 (Vero; vero): Non-toxic
selectivity ratio [6]: > 4.1

O=C(CCCCCn1cc(-c2ccc3ccccc3n2)nn1)NO
selectivity ratio [1]: 70.6
IC90 (Leishmania donovani [3]; Leishmania donovani, 72 h): 39 µg/mL (≈ 120 µM)
IC50 (Leishmania donovani [3]; [14]): 9.5 µg/mL (≈ 29.2 µM)
Ratio IC50 (Plasmodium falciparum [9]): 5
IC50 ratio (Leishmania donovani [7]): 2
IC50 (Plasmodium falciparum [4]): 0.033 µg/mL (≈ 0.101 µM)
Ratio (Leishmania donovani [8]): 2
Ratio IC50 (Plasmodium falciparum [10]): 5
IC50 (Plasmodium falciparum [5]; [12]): 0.034 µg/mL (≈ 0.104 µM)
IC50 (Vero; [13]): 2.4 µg/mL (≈ 7.38 µM)
selectivity ratio [6]: 72.7

CN(C)c1ccc(-c2cn(CCCCCCCCC(=O)NO)nn2)cc1
IC50 (Histone deacetylase): 596.6 nM
selectivity ratio [1]: > 2.9
IC90 (Leishmania donovani [3]; Leishmania donovani, 72 h): > 40 µg/mL
IC50 (Leishmania donovani [3]; [14]): 20.8 µg/mL (≈ 57.7 µM)
IC50 (Plasmodium falciparum [4]): 1.8 µg/mL (≈ 5.01 µM)
IC50 (Plasmodium falciparum [5]; [12]): 1.65 µg/mL (≈ 4.59 µM)
IC50 (Vero; vero): Non-toxic
selectivity ratio [6]: > 2.6

O=C(CCCCCCn1cc(-c2ccccn2)nn1)NO
selectivity ratio [1]: 23.8
IC90 (Leishmania donovani [3]; Leishmania donovani, 72 h): 40 µg/mL (≈ 138 µM)
IC50 (Leishmania donovani [3]; [14]): 5.75 µg/mL (≈ 19.9 µM)
IC50 ratio (Leishmania donovani [7]): 2
IC50 (Plasmodium falciparum [4]): 0.069 µg/mL (≈ 0.238 µM)
Ratio (Leishmania donovani [8]): 2
IC50 (Plasmodium falciparum [5]; [12]): 0.04 µg/mL (≈ 0.138 µM)
IC50 (Vero; [13]): 0.95 µg/mL (≈ 3.28 µM)
selectivity ratio [6]: 13.8

COc1ccc2cc(-c3cn(CCCCCCC(=O)NO)nn3)ccc2c1
selectivity ratio [1]: 50
IC90 (Leishmania donovani [3]; Leishmania donovani, 72 h): > 40 µg/mL
IC50 (Leishmania donovani [3]; [14]): 18.5 µg/mL (≈ 50.2 µM)
Ratio IC50 (Plasmodium falciparum [9]): 5
IC50 (Plasmodium falciparum [4]): 0.0475 µg/mL (≈ 0.129 µM)
Ratio IC50 (Plasmodium falciparum [10]): 5
IC50 (Plasmodium falciparum [5]; [12]): 0.053 µg/mL (≈ 0.144 µM)
IC50 (Vero; [13]): 2.65 µg/mL (≈ 7.19 µM)
selectivity ratio [6]: 55.8

COc1cccc(-c2cn(CCCCCC(=O)NO)nn2)c1
IC90 (Leishmania donovani [2]): inactive
IC50 (Leishmania donovani [3]): Not Active
IC50 (Plasmodium falciparum [11]): Not Active
IC50 (Plasmodium falciparum [5]; vero): Not Active
IC50 (Vero; vero): Non-toxic
